The text below walks through data of patent US11413261B2, “Pharmaceutical composition for treating cancer comprising lactate metal salt” (METIMEDI PHARMACEUTICALS CO., LTD, priority 2014, dated 2022).

In assay [1] the test system is human colorectal cancer cell lines (HT-29 and HCT-116). Description: Colony-forming ability, anticancer drug in combination with calcium lactate (6-well plates). It counts as cell-based. As to conditions: vs control. As for the experimental part:
Human colorectal cancer cell lines (HT-29 and HCT-116) with the cell number of 1×10^3 cells were seeded into an RPMI1640 medium in each of 6-well plates. After one day, the medium was replaced with fresh medium and the cells were treated with 2.5 mM calcium lactate or 1 μM, 2.5 μM, and 5 μM Imatinib alone or treated with various concentrations (1 μM, 2.5 μM, and 5 μM) of Imatinib in combination with 2.5 mM calcium lactate. Then, the colony-forming abilities of the cells were compared. In this case, human colorectal cancer cell lines (HT-29 and HCT-116) untreated with any drug were used as control groups (FIGS. 38a, 38b, 39a and 39b).
Human colorectal cancer cell lines (HT-29 and HCT-116) with the cell number of 1×10^3 cells were seeded into an RPMI1640 medium in each of 6-well plates. After one day, the medium was replaced with fresh medium and the cells were treated with 2.5 mM calcium lactate or 2.5 μM, 5 μM, and 10 μM 5-FU alone or treated with various concentrations (2.5 μM, 5 μM, and 10 μM) of 5-FU in combination with 2.5 mM calcium lactate. Then, the colony-forming abilities of the cells were compared. In this case, human colorectal cancer cell lines (HT-29 and HCT-116) untreated with any drug were used as control groups (FIGS. 40a, 40 b, 41a and 41b).

The subject of assay [2] is human colorectal cancer cell line HCT-116. As to conditions: 5 mM CA individually, 10 days.
Assay [3] has as its system human lung cancer cell line (A549). The assay can be described thus: Colony-forming ability, anticancer drug in combination with calcium lactate (6-well plates). As to conditions: vs control. It counts as cell-based. The procedure: Human breast cancer cell line (MCF-7) and a human lung cancer cell line (A549) with the cell number of 1×10^3 cells were seeded into an RPMI1640 medium in each of 6-well plates. […]. Then, the colony-forming abilities of the cells were compared. In this case, a human breast cancer cell line (MCF-7) and a human lung cancer cell line (A549) untreated with any drug were used as control groups (FIGS. 42a, 42b, 43a and 43b).
Human lung cancer cell line (A549) with the cell number of 1×10^3 cells were seeded into an RPMI1640 medium in each of 6-well plates. […]. Then, the colony-forming abilities of the cells were compared. In this case, a human lung cancer cell line (A549) untreated with any drug was used as a control group (FIGS. 44a and 44b).
Human lung cancer cell line (A549) with the cell number of 1×10^3 cells were seeded into an RPMI1640 medium in each of 6-well plates. […]. Then, the colony-forming abilities of the cells were compared. In this case, a human lung cancer cell line (A549) untreated with any drug was used as a control group (FIGS. 47a and 47b).
Human lung cancer cell line (A549) with the cell number of 1×10^3 cells were seeded into an RPMI1640 medium in each of 6-well plates. […]. Then, the colony-forming abilities of the cells were compared. In this case, a human lung cancer cell line (A549) untreated with any drug was used as a control group (FIGS. 49a and 49b).
Human lung cancer cell line (A549) with the cell number of 1×10^3 cells were seeded into an RPMI1640 medium in each of 6-well plates. […]. Then, the colony-forming abilities of the cells were compared. In this case, a human lung cancer cell line (A549) untreated with any drug was used as a control group (FIGS. 50a and 50b).
Human lung cancer cell line (A549) with the cell number of 1×10^3 cells were seeded into an RPMI1640 medium in each of 6-well plates. […]. Then, the colony-forming abilities of the cells were compared. In this case, a human lung cancer cell line (A549) untreated with any drug was used as a control group (FIGS. 51a and 51b).

Assay [4] concerns human kidney cancer cell line (Caki-1). The assay is described as above. It counts as cell-based. As to conditions: 0.3, 0.5, 1 nM Everolimus alone, vs control. The procedure:
Human kidney cancer cell line (Caki-1) with the cell number of 1×10^3 cells were seeded into an RPMI1640 medium in each of 6-well plates. After one day, the medium was replaced with fresh medium and the cells were treated with 0.3 nM, 0.5 nM, and 1 nM Everolimus alone or treated with various concentrations (0.3 nM, 0.5 nM, and 1 nM) of Everolimus in combination with 2.5 mM calcium lactate. Then, the colony-forming abilities of the cells were compared. In this case, a human kidney cancer cell line (Caki-1) untreated with any drug was used as a control group (FIGS. 53a and 53b).

The test system of assay [5] is human colorectal cancer cell line (HT-29). Described as above. To be noted: vs control. It counts as cell-based. The procedure: Human colorectal cancer cell line (HT-29) with the cell number of 1×10^3 cells were seeded into an RPMI1640 medium in each of 6-well plates. […]. Then, the colony-forming abilities of the cells were compared. In this case, a human colorectal cancer cell line (HT-29) untreated with any drug was used as a control group (FIGS. 46a and 46b).
Human colorectal cancer cell line (HT-29) with the cell number of 1×10^3 cells were seeded into an RPMI1640 medium in each of 6-well plates. […]. Then, the colony-forming abilities of the cells were compared. In this case, a human colorectal cancer cell line (HT-29) untreated with any drug was used as a control group (FIGS. 48a and 48b).
Human colorectal cancer cell line (HT-29) with the cell number of 1×10^3 cells were seeded into an RPMI1640 medium in each of 6-well plates. […]. Then, the colony-forming abilities of the cells were compared. In this case, a human colorectal cancer cell line (HT-29) untreated with any drug was used as a control group (FIG. 55).

Assay [6] concerns human breast cancer cell line (MCF-7). The description is as above. It counts as cell-based. To be noted: vs control. The procedure:
Human breast cancer cell line (MCF-7) and a human lung cancer cell line (A549) with the cell number of 1×10^3 cells were seeded into an RPMI1640 medium in each of 6-well plates. […] Then, the colony-forming abilities of the cells were compared. In this case, a human breast cancer cell line (MCF-7) and a human lung cancer cell line (A549) untreated with any drug were used as control groups (FIGS. 42a, 42b, 43a and 43b).
Human breast cancer cell line (MCF-7) with the cell number of 1×10^3 cells were seeded into an RPMI1640 medium in each of 6-well plates. After one day, the medium was replaced with fresh medium and the cells were treated with 2.5 mM calcium lactate or 2 μM, 4 μM, and 8 μM Lapatinib alone or treated with various concentrations (2 μM, 4 μM, and 8 μM) of Lapatinib in combination with 2.5 mM calcium lactate. Then, the colony-forming abilities of the cells were compared. In this case, a human breast cancer cell line (MCF-7) untreated with any drug was used as a control group (FIGS. 52a and 52b).

Assay [7] concerns human liver cancer cell line (Hep3B). The assay is described as above. To be noted: 1, 2.5, 5 μM Sorafenib alone, vs control. It counts as cell-based. As for the experimental part: Human liver cancer cell line (Hep3B) with the cell number of 1×10^3 cells were seeded into an RPMI1640 medium in each of 6-well plates. After one day, the medium was replaced with fresh medium and the cells were treated with 2.5 mM calcium lactate or 1 μM, 2.5 μM, and 5 μM Sorafenib alone or treated with various concentrations (1 μM, 2.5 μM, and 5 μM) of Sorafenib in combination with 2.5 mM calcium lactate. Then, the colony-forming abilities of the cells were compared. In this case, a human liver cancer cell line (Hep3B) untreated with any drug was used as a control group (FIGS. 45a and 45b).

In assay [8] the test system is human vascular endothelial cell (HUVEC). Description: Tube formation of HUVEC in culture supernatants of treated cancer cell lines. It counts as cell-based. To be noted: HUVEC treated with Sulforaphane (comparison group). From the text: A human vascular endothelial cell (HUVEC) was inoculated into each of the obtained culture supernatant and cultured to analyze a conformational change of cells (FIG. 17). In this case, an HUVEC cultured using the culture medium of a cancer cell line cultured without treating with calcium lactate was used as a control group, and an HUVEC cultured with the treatment with Sulforaphane, which is a growth inhibitor of an HUVEC, was used as a comparison group.

Assay [9] has as its system cancer cell. Description: Dissociation of metal lactate salts to lactate in a cancer cell. It counts as cell-based.
Setting [10] is: 0.63, 1.3, 2.5 nM Paclitaxel alone.

Turning to `O=c1[nH]cc(F)c(=O)[nH]1` [5-FU], in assay [1] (2.5, 5, 10 μM 5-FU alone), the colony-forming ability entry is listed as “suppressed”.

As to `O=C(O)C=Cc1ccccc1` [CA, cinnamic acid, reference compound], the survival rate result in assay [2] is “about 60%”. In the case of `N.N.O=C([O-])C1(C(=O)[O-])CCC1.[Pt+2]` [Carboplatin], the colony-forming ability result in [3] (2.5, 5, 10 μM Carboplatin alone) is “suppressed”.

For `CC(=O)O[C@@]12CO[C@@H]1C[C@H](O)[C@@]1(C)C(=O)[C@H](O)C3=C(C)[C@@H](OC(=O)[C@H](O)[C@@H](NC(=O)OC(C)(C)C)c4ccccc4)C[C@@](O)([C@@H](OC(=O)c4ccccc4)[C@H]21)C3(C)C` [Docetaxel], the colony-forming ability result in [3] (0.6, 1.3, 2.5 nM Docetaxel alone) is given as “suppressed”.

As to `C#Cc1cccc(Nc2ncnc3cc(OCCOC)c(OCCOC)cc23)c1` [Erlotinib], the colony-forming ability result in [3] (0.5, 1, 2 μM Erlotinib alone) was “suppressed”. In the case of `CO[C@H]1C[C@@H]2CC[C@@H](C)[C@@](O)(O2)C(=O)C(=O)N2CCCC[C@H]2C(=O)O[C@H]([C@H](C)C[C@@H]2CC[C@@H](OCCO)[C@H](OC)C2)CC(=O)[C@H](C)/C=C(\C)[C@@H](O)[C@@H](OC)C(=O)[C@H](C)C[C@H](C)/C=C/C=C/C=C/1C` [Everolimus, reference compound], the colony-forming ability entry in assay [4] is given as “suppressed”.

In the case of `COc1cc2ncnc(Nc3ccc(F)c(Cl)c3)c2cc1OCCCN1CCOCC1` [Gefitinib], in assay [3] (1.3, 2.5, 5 μM Gefitinib alone), the colony-forming ability result is recorded as “suppressed”. On to `Cc1ccc(NC(=O)c2ccc(CN3CCN(C)CC3)cc2)cc1Nc1nccc(-c2cccnc2)n1` [Imatinib], for which the colony-forming ability entry in assay [1] (1, 2.5, 5 μM Imatinib alone) is given as “suppressed”. Consider `CCc1c2c(nc3ccc(OC(=O)N4CCC(N5CCCCC5)CC4)cc13)-c1cc3c(c(=O)n1C2)COC(=O)[C@]3(O)CC` [Irinotecan], for which the colony-forming ability result in [5] (0.5, 1, 2 μM Irinotecan alone) is given as “suppressed”. On to `CS(=O)(=O)CCNCc1ccc(-c2ccc3ncnc(Nc4ccc(OCc5cccc(F)c5)c(Cl)c4)c3c2)o1` [Lapatinib], for which the colony-forming ability result in assay [6] (2, 4, 8 μM Lapatinib alone) is recorded as “suppressed”. Regarding `CN(Cc1cnc2nc(N)nc(N)c2n1)c1ccc(C(=O)N[C@@H](CCC(=O)O)C(=O)O)cc1` [Methotrexate], in assay [3] (5, 10, 20 nM Methotrexate alone), the colony-forming ability entry is “suppressed”. Consider `O=C1[O][Pt]2([NH][C@@H]3CCCC[C@H]3[NH]2)[O]C1=O` [Oxaliplatin], for which the colony-forming ability entry in [5] (1.3, 2.5, 5 μM Oxaliplatin alone) is on record as “suppressed”. Consider `CC(=O)O[C@H]1C(=O)[C@@]2(C)[C@H]([C@H](OC(=O)c3ccccc3)[C@]3(O)C[C@H](OC(=O)[C@H](O)[C@@H](NC(=O)c4ccccc4)c4ccccc4)C(C)=C1C3(C)C)[C@]1(OC(C)=O)CO[C@@H]1C[C@@H]2O` [Paclitaxel], for which the colony-forming ability entry in assay [6] (setting [10]) and in assay [3] (setting [10]) was “suppressed” each time. For `CNC(=O)c1cc(Oc2ccc(NC(=O)Nc3ccc(Cl)c(C(F)(F)F)c3)cc2)ccn1` [Sorafenib, reference compound], the colony-forming ability entry in [7] is recorded as “suppressed”. For the compound `C[S+]([O-])CCCCN=C=S` (stereo not drawn) [Sulforaphane, reference compound], the “tube-forming ability of HUVEC” value in assay [8] is “reduced tube-forming ability”.

Take `CC(O)C(=O)[O-].[K+]` (stereo not drawn) [potassium lactate]: the “dissociation to lactate in a cancer cell” value in assay [9] is “can be dissociated to lactate”. The same measure, in the same setting: under `CC(O)C(=O)[O-].[Na+]` (stereo not drawn) [sodium lactate] stands “can be dissociated to lactate”.
